Each structure is given as a SMILES string. Active and inactive are the calls of the source. The calls are words filed in the database; no cut-off is given here.

1 compound from ChEMBL document CHEMBL3102856, “The marine cyanobacterial metabolite gallinamide A is a potent and selective inhibitor of human cathepsin L” (J Nat Prod, 2014) can be followed below.

Assay [1] has as its target T1, Procathepsin L (Homo sapiens, UniProt P07711). Nature of the assay: Irreversible inhibition of recombinant human Cathepsin L using Z-Phe-Arg-aminomethylcoumarin as substrate assessed as residual activity at 10 fold IC50 preincubated for 30 mins followed by 100 fold dilution measured for 2 hrs by fluorescence assay.
Target sequence in this assay (P07711 114-333 limits assumed): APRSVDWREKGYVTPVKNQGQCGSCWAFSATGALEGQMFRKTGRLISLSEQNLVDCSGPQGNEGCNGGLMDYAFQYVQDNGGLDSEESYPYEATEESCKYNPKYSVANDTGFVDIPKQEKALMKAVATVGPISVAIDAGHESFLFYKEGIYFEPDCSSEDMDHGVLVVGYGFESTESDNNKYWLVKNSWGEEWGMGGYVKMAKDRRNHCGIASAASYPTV
For assay [2], the species on record is Homo sapiens. As to the kind of experiment: Selectivity index, ratio of IC50 for human Cathepsin V to IC50 for recombinant human Cathepsin L using Z-Phe-Arg-aminomethylcoumarin as substrate.
Assay [3] concerns the target T1, Procathepsin L. As to the kind of experiment: Inhibition of recombinant human Cathepsin L using Z-Phe-Arg-aminomethylcoumarin as substrate.
For assay [4], the target named is T2, Pro-cathepsin H (Homo sapiens, UniProt P09668).
T2 sequence (P09668 whole entry): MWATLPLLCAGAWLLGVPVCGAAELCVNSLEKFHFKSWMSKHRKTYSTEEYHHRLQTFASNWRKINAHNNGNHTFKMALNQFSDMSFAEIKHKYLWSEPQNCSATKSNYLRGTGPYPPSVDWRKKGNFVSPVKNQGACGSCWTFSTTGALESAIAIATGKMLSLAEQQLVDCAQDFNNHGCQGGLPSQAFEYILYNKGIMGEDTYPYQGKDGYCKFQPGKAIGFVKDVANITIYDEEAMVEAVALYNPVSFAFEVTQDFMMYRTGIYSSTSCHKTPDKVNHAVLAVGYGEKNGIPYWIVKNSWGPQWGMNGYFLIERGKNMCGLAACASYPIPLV
Nature of the assay: Inhibition of human Cathepsin H using Arg-aminomethylcoumarin as substrate preincubated for 30 mins followed by substrate addition.

Assay [5] deals with T3, Cathepsin B (Homo sapiens, UniProt P07858). Nature of the assay: Inhibition of human Cathepsin B using Z-Phe-Arg-aminomethylcoumarin as substrate.
The species entered for assay [6] is Homo sapiens. Nature of the assay: Selectivity index, ratio of IC50 for human Cathepsin B to IC50 for recombinant human Cathepsin L using Z-Phe-Arg-aminomethylcoumarin as substrate.
For assay [7], the species on record is Homo sapiens. Nature of the assay: Selectivity index, ratio of IC50 for human Cathepsin B to IC50 for recombinant human Cathepsin L after 30 mins using Z-Phe-Arg-aminomethylcoumarin as substrate preincubated for 30 mins followed by substrate addition.
The target of assay [8] is T4, Cathepsin L2 (Homo sapiens, UniProt O60911).
T4 sequence (O60911 whole entry): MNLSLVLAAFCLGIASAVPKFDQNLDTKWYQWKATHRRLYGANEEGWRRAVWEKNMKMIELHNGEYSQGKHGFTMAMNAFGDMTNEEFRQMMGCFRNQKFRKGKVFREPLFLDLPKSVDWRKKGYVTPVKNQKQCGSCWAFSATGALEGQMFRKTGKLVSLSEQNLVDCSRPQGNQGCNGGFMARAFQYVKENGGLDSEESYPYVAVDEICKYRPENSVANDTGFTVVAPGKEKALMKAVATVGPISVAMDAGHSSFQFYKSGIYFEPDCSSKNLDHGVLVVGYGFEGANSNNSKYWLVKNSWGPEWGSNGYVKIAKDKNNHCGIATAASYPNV
Nature of the assay: Inhibition of human Cathepsin V using Z-Phe-Arg-aminomethylcoumarin as substrate.

Assay [9] deals with T2, Pro-cathepsin H. Nature of the assay: Inhibition of human Cathepsin H using Arg-aminomethylcoumarin as substrate.
Assay [10] deals with T3, Cathepsin B. As to the kind of experiment: Inhibition of human Cathepsin B using Z-Phe-Arg-aminomethylcoumarin as substrate preincubated for 30 mins followed by substrate addition.
The species named for assay [11] is Homo sapiens. As to the kind of experiment: Selectivity index, ratio of IC50 for human Cathepsin V to IC50 for recombinant human Cathepsin L using Z-Phe-Arg-aminomethylcoumarin as substrate preincubated for 30 mins followed by substrate addition.
For assay [12], the target named is T1, Procathepsin L. Nature of the assay: Inhibition of recombinant human Cathepsin L using Z-Phe-Arg-aminomethylcoumarin as substrate preincubated for 30 mins followed by substrate addition.
Target sequence in this assay (P07711 whole entry): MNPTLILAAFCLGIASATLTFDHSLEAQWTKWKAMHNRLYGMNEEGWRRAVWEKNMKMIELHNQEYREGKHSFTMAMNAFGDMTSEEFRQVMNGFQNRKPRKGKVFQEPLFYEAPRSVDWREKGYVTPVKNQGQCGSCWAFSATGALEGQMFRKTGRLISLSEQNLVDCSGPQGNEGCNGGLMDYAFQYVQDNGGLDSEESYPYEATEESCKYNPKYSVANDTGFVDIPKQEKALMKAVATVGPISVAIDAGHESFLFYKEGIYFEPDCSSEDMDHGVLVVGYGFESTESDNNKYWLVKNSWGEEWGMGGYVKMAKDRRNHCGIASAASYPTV
The target in assay [13] is T4, Cathepsin L2. Nature of the assay: Inhibition of human Cathepsin V using Z-Phe-Arg-aminomethylcoumarin as substrate preincubated for 30 mins followed by substrate addition.
Assay [14] concerns the target T1, Procathepsin L. Nature of the assay: Irreversible inhibition of recombinant human cathepsin L using Z-Phe-Arg-aminomethylcoumarin as substrate.
Target sequence in this assay (P07711 whole entry): as above
Assay [15] has as its target T1, Procathepsin L. Nature of the assay: Inhibition of recombinant human Cathepsin L assessed as inhibition of activity-based probe DCG-04 labelling preincubated for 30 mins followed by DCG-04 addition measured after 30 mins.
Target sequence in this assay (P07711 114-333 limits assumed): as the sequence (P07711 114-333 limits assumed) above

What is called IC50 is the concentration that gives 50% inhibition. For the compound `CC[C@H](C)[C@@H](C(=O)O[C@@H](CC(C)C)C(=O)N[C@@H](CC(C)C)C(=O)N[C@@H](C)/C=C/C(=O)N1C(=O)C=C(OC)[C@@H]1C)N(C)C` [GALLINAMIDE A], the inhibition result in assay [1] is “Active”. For the same compound, the Ratio IC50 in assay [2] is 10; in assay [6], 91; in assay [7], 320; in [11], 28. For the same compound, the IC50 in [3] is 47 nM; in [4], over 30000 nM; in [5] it was 4200 nM; in [8] it was 460 nM; in assay [9], over 30000 nM; in assay [10], 1700 nM. For the same compound, the figures for the IC50 in assay [12] and in assay [13] were 5 nM and 140 nM, respectively. Besides, the inhibition result in assay [3] (TDE = time-dependent effect) is “tde”; in [15], “Dose-dependent effect”. Further, the Ki in assay [14] amounted to 9000 M⁻¹ s⁻¹.
